Experimental data published in patent US20090221024A1, “T CELL ASSAYS” (ANTITOPE LIMITED, priority 2006, published 2009).

What was measured:
[1] = test system: CD8^+ CD25^hi T cell depleted PBMC; assay: Timecourse T cell proliferation assay, bulk cultures of CD8+ CD25hi T cell depleted PBMC; type: cell-based, human
Protocol: Wild type (WT) and T cell epitope depleted peptides ([…] and […], respectively) derived from human sTNFR1 sequence were synthesized (Pepscan Systems, Leystad, Netherlands) and tested using the method of example 1 in which CD8^+ CD25^hi T cell depleted PBMC were used to compare peptides derived from sTNFR-1 for the capacity to stimulate T cell responses from twenty healthy donors. Bulk cultures were established by adding 1 ml of 2-4×10^6/ml CD8^+ CD25^hi T cell depleted PBMC in AIM V culture medium to each well of a 24 well plate (Greiner Bio-One, Frickenhausen, Germany). Each peptide was tested separately against each donor by adding 1 ml 10 μM peptide to each bulk culture (final concentration of 5 μM for a 2 ml per bulk culture). For comparison, additional bulk cultures were established for untreated and positive (KLH) controls. Replicate samples (of T blasts) were removed from bulk cultures on days 6-9 and proliferation was assessed in 96 round bottom plates The data were used to assess the magnitude and kinetics of T cell responses to each peptide on days 6, 7, 8 and 9 post stimulation. In addition, the same twenty healthy donors used in the time course proliferation assay were tested for IL-2 production after 8 days culture with the TNFR1 peptides using the IL-2 Elispot assay. Elispot plates were pre-wet with 70% ethanol then coated with IL-2 capture antibody (R&D systems, Minneapolis, USA) overnight at 4° C. The plates were washed twice with PBS (Invitrogen, Paisley, UK) then blocked in 1% BSA/PBS for 2 hours at room temperature. The plates were washed in PBS prior to the addition of CD8^+ CD25^hi T cell depleted PBMC at 4×10^5 cells per well and test samples at a final concentration of 5 μM. After 7 days at 37° C./5% CO2, the plates were developed. After washing with first water then PBS, IL-2 detection antibody (R&D systems, Minneapolis, USA) in PBS/1% BSA was added for 2 hours at 37° C. After further washing with PBS, streptavadin-AP (R&D systems, Minneapolis, USA) was added for 1.5 hours, the plates washed again then BCIP/NBT chromagen (R&D systems, Minneapolis, USA) added for 30 minutes. The plates were washed with water, dried then spot counts analysed using the Immunospot Elispot analyzer, software version 3 (Cleveland, Ohio, USA).
Wild type (WT) and mutant T cell epitope depleted human sTNFR1 proteins were prepared as human Fc fusion proteins as described in WO/2004/113387 with the epitope-depleted protein having mutations I10Q, T20R, H23P, L56A, L108T, L110H and L149D. Proliferation and IL-2 Elispot assays were performed as in example 2 except that 1 ml of sTNFR1 proteins were added to a final concentration of 10 μg/ml.
Carbamazepine (Novartis Pharmaceuticals UK) and an N-acetyl iminostilbene (an analogue of carbamazepine, synthesized according to Ying et al Journal of Allergy and Clinical Immunology 2006; 118:233-241) were compared for the ability to stimulate T cell responses in a panel of healthy donors. Both compounds were tested at 25 μg/ml in separate bulk cultures for each donor according to the method of example 2. Briefly, bulk cultures were established using 2-4×10^6 CD8^+ CD25^hi T cell depleted PBMC in each well of a 24 well plate. Replicate samples (of T blasts) are removed from bulk cultures on days 5-8 and proliferation was assessed in 96 well plates. The data were used to assess the magnitude and kinetics of T cell responses to each compound.
As for example 2, a SI≧2 was used as a threshold for positive responses and data was further analyzed to determine the coefficient of variance (CV), standard deviation (SD) and significance (p<0.05) using parametric and non-parametric statistical analysis. Any given compound was considered to be immunogenic only if the response is statistically significant (p<0.05) with an SI≧2.

patients = settings: known; cited from earlier work
[2] = test system: CD8^+ CD25^hi depleted PBMC; assay: T cell proliferation assay (3HTdR) with whole CD8+ depleted vs CD8+ CD25hi depleted PBMC; type: cell-based, human; settings: peptides previously scored borderline or negative; SI≧2 threshold
[3] = test system: CD8^+ CD25^hi T cell depleted PBMC; assay: IL-2 Elispot assay with CD8+ CD25hi T cell depleted PBMC; type: cell-based, human; settings: 5 μM peptide, twenty healthy donors, SI threshold of 2, p<0.05; donors 3, 8 and 11
Protocol: Wild type (WT) and T cell epitope depleted peptides ([…] and […], respectively) derived from human sTNFR1 sequence were synthesized (Pepscan Systems, Leystad, Netherlands) and tested using the method of example 1 in which CD8^+ CD25^hi T cell depleted PBMC were used to compare peptides derived from sTNFR-1 for the capacity to stimulate T cell responses from twenty healthy donors. Bulk cultures were established by adding 1 ml of 2-4×10^6/ml CD8^+ CD25^hi T cell depleted PBMC in AIM V culture medium to each well of a 24 well plate (Greiner Bio-One, Frickenhausen, Germany). Each peptide was tested separately against each donor by adding 1 ml 10 μM peptide to each bulk culture (final concentration of 5 μM for a 2 ml per bulk culture). For comparison, additional bulk cultures were established for untreated and positive (KLH) controls. Replicate samples (of T blasts) were removed from bulk cultures on days 6-9 and proliferation was assessed in 96 round bottom plates The data were used to assess the magnitude and kinetics of T cell responses to each peptide on days 6, 7, 8 and 9 post stimulation. […] The plates were washed with water, dried then spot counts analysed using the Immunospot Elispot analyzer, software version 3 (Cleveland, Ohio, USA). […]

[4] = test system: autologous CD8^+ CD25^hi depleted CD4^+ T cells; assay: Proliferation assay, antigen-pulsed monocyte derived dendritic cells plus autologous CD8+ CD25hi depleted CD4+ T cells; type: cell-based, human; settings: 44 μg/ml, DC pulsed 6 hours, 7 days, SI ≧2, p<0.05, FIG. 4
Protocol: (§1) Monocytes were isolated from PBMC by adherence to tissue culture plastic (>90% CD14^+) and were cultured in 24 well plates in AIM V medium with 5% heat inactivated human AB serum (Autogen Bioclear, Caine, Wiltshire, UK) (growth medium) at an approximate density of 1×10^6 per well (24 well plate). Monocytes were incubated in growth medium containing human IL-4 (Peprotech, Rocky Hill, N.J., USA) and GM-CSF (Peprotech, Rocky Hill, N.J., USA) for 3 days. On day 3, 44 μg/ml of Betaferon (Schering AG, Berlin, Germany) were added in 0.5 ml test buffer plus 3% heat inactivated human AB serum and 25 mM (final concentration) HEPES pH 8. Control wells containing 50 μg/ml KLH or no antigen (untreated cells) were incubated in 1 ml PBS+0.01% Tween 20 plus 3% heat inactivated human AB serum (standard buffer). DC were incubated with antigen for 6 hours after which DCs were washed 6 times to remove exogenous IFN beta. […]
(§2) On day 4, autologous CD8^+ CD25^hi depleted CD4^+ T cells were isolated by negative selection from PBMC (Dynal Human CD4^+ Negative Isolation Kit, Wirral, UK) and were then added to DCs at 1×10^5 per well in both proliferation and Elispot plates. Elispot plates were incubated for 6 days before developing (as in example 2) and proliferation plates were incubated for 7 days before proliferation was measured by incorporation of 3HTdR (a 6 hour pulse at 1 μCi/well). […]

[5] = test system: autologous CD8^+ CD25^hi depleted CD4^+ T cells; assay: IL-2 Elispot assay, antigen-pulsed monocyte derived dendritic cells plus autologous CD8+ CD25hi depleted CD4+ T cells; type: cell-based, human; settings: 44 μg/ml, DC pulsed 6 hours, 6 days, SI ≧2, p<0.05, FIG. 4
Protocol: as §1, §2

[6] = 5 μM peptide, donors 3, 8 and 11

CC(=O)N1c2ccccc2C=Cc2ccccc21 [N-acetyl iminostilbene]
donors stimulated, compared ([1]; 25 μg/ml, days 5-8, panel of healthy donors, SI≧2, p<0.05): fewer donors than carbamazepine

NC(=O)N1c2ccccc2C=Cc2ccccc21 [carbamazepine, Carbamazepine]
delayed allergic responses in patients (patients): potent inducer of delayed allergic responses | additional responses detected on days 6 and 7 ([1]; 25 μg/ml): one | day on which the majority of T cell responses are induced ([1]; 25 μg/ml, days 5-8): 5 days

GDKFVSWYQQGSGQS [compound 2]
detection of T cell epitopes after CD25^hi T cell depletion [2]: allowed detection of T cell epitopes

HLRHCLSCSKCRKEM [WT peptide]
donors giving responses, IL-2 Elispot assay [3]: three | peak proliferation responses, time [1, 6]: 7 days after peptide addition | score as a T cell epitope if proliferation measured at timepoints 8 or 9 days after peptide addition [1, 6]: negative | donors giving responses, proliferation assay ([1]; 5 μM peptide, twenty healthy donors, days 6-9, SI threshold of 2, p<0.05, donors 3, 8 and 11): three

PGQTATITCSGHALG [peptide 1]
detection of T cell epitopes after CD25^hi T cell depletion [2]: allowed detection of T cell epitopes

B1: Betaferon: Betaferon (Schering AG), human interferon beta, an immunomodulatory protein (protein, UniProt P01574 22-187, looked up, variant C17S)
Interferon beta: MSYNLLGFLQRSSNFQSQKLLWQLNGRLEYCLKDRMNFDIPEEIKQLQQFQKEDAALTIYEMLQNIFAIFRQDSSSTGWNETIVENLLANVYHQINHLKTVLEEKLEKEDFTRGKLMSSLHLKRYYGRILHYLKAKEYSHCAWTIVRVEILRNFYFINRLTGYLRN
modifications: no N-terminal Met
notes: Betaferon (Schering AG), human interferon beta, an immunomodulatory protein
donors with significant T cell responses, proliferation assay [4]: 4 out of 29 | donors with significant T cell responses, IL-2 Elispot assay [5]: 4 out of 29

B2: mutant T cell epitope depleted protein: T cell epitope depleted human sTNFR1 Fc fusion protein with mutations I10Q, T20R, H23P, L56A, L108T, L110H and L149D (protein, UniProt P19438 30-211, looked up, variant I10Q T20R H23P L56A L108T L110H L149D)
extracellular domain: LVPHLGDREKRDSVCPQGKYQHPQNNSICCRKCPKGTYLYNDCPGPGQDTDCRECESGSFTASENHARHCLSCSKCRKEMGQVEISSCTVDRDTVCGCRKNQYRHYWSENLFQCFNCSTCHNGTVHLSCQEKQNTVCTCHAGFFLRENECVSCSNCKKSDECTKLCLPQIENVKGTEDSGTT
modifications: extracellular domain human Fc fusion
donors with significant T cell responses, proliferation assay ([1]; whole protein 10 μg/ml, timecourse, FIG. 3): not
